Laboratory results reported in the supplement of paper PMC8671470.

Key:
Settings in all cases: 72 h
HL-60 [1] = experiment: area under dose-response curve (viability, 1 nM-10 uM) (fraction (0-1)); higher = more sensitive
Method in brief: (§1)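 Area under the curve, where listed, was derived from four-parameter log-logistic fits with drc and PharmacoGx. These fits used CellTiter-Glo viability from HL-60 cells in RPMI 1640 with 10% FBS, normalised to DMSO wells and wells holding 10 μM proteasome inhibitor. The full library was rescreened on 384-well plates in duplicate at five tenfold concentrations, 1–10,000 nM, with DMSO or 100 nM of one of three metabolic inhibitors, for 72 h at 37 °C, 5% CO2.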

HL-60 [2] = experiment: cell viability (% survival relative to DMSO control); higher = less cytotoxic
Method in brief: as §1

[3] = tested on: myeloid leukemia patient primary cells Pat.3; experiment: cell viability (% survival relative to DMSO control); higher = less cytotoxic
Method in brief: (§2)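 Thawed, Ficoll-purified mononuclear cells from AML or CML patients in RPMI 1640 with 10% FBS were seeded at 10,000 cells/well on 384-well plates pre-printed with 70 compounds at five tenfold concentrations, 1–10,000 nM, in duplicate, for 72 h. Viability was read by CellTiter-Glo and normalised to DMSO and 10 μM proteasome-inhibitor wells. Where given, area under the curve came from four-parameter log-logistic fits (drc, PharmacoGx R packages).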

[4] = tested on: myeloid leukemia patient primary cells Pat.14; experiment: as above
Method in brief: as §2

[5] = tested on: myeloid leukemia patient primary cells Pat.4; experiment: as above
Method in brief: as §2

[6] = tested on: myeloid leukemia patient primary cells Pat.8; experiment: as above
Method in brief: as §2

[7] = tested on: myeloid leukemia patient primary cells Pat.13; experiment: as above
Method in brief: as §2

[8] = tested on: myeloid leukemia patient primary cells Pat.6; experiment: as above
Method in brief: as §2

[9] = tested on: myeloid leukemia patient primary cells Pat.12; experiment: as above
Method in brief: as §2

[10] = tested on: myeloid leukemia patient primary cells Pat.11; experiment: as above
Method in brief: as §2

[11] = tested on: myeloid leukemia patient primary cells Pat.5; experiment: as above
Method in brief: as §2

[12] = tested on: myeloid leukemia patient primary cells Pat.1; experiment: as above
Method in brief: as §2

[13] = tested on: myeloid leukemia patient primary cells Pat.2; experiment: as above
Method in brief: as §2

[14] = tested on: myeloid leukemia patient primary cells Pat.15; experiment: as above
Method in brief: as §2

[15] = tested on: myeloid leukemia patient primary cells Pat.7; experiment: as above
Method in brief: as §2

[16] = tested on: myeloid leukemia patient primary cells Pat.10; experiment: as above
Method in brief: as §2

[17] = tested on: myeloid leukemia patient primary cells Pat.9; experiment: as above
Method in brief: as §2

O=C(O)CC[N+](=O)[O-] [3-nitropropionic acid]
Settings | area under dose-response curve, co-treatment: AZD3965 100 nM | area under dose-response curve, co-treatment: DMSO vehicle | area under dose-response curve, co-treatment: GSK2194069 100 nM | area under dose-response curve, co-treatment: pictilisib 100 nM | cell viability, 1 nM [%] | cell viability, 10 nM [%] | cell viability, 100 nM [%] | cell viability, 1000 nM [%] | cell viability, 10000 nM [%]
HL-60 [1] | < 0.0301 | < 0.0301 | < 0.0301 | < 0.0301 | – | – | – | – | –
[3] | – | – | – | – | 91.5 | 93.8 | 99.8 | 92.1 | 3.01
[4] | – | – | – | – | 98.6 | 91.2 | > 100 | 84.7 | 30.7
[5] | – | – | – | – | 83.6 | 84.5 | 99.3 | 95.6 | 5.84
[6] | – | – | – | – | 81.1 | 96.9 | 95.6 | 96.3 | 82.7
[7] | – | – | – | – | 87.3 | 92.4 | 95.5 | 88.3 | 70.8
[8] | – | – | – | – | > 100 | 93 | > 100 | 96.8 | 90
[9] | – | – | – | – | 97.9 | 84 | > 100 | 91.5 | 48.2
[10] | – | – | – | – | 97.4 | 90.2 | 97.5 | 99.5 | 97.4
[11] | – | – | – | – | 85.9 | 50.1 | 81.8 | 67.1 | 0.265
[12] | – | – | – | – | 84.1 | 94.1 | > 100 | 88.4 | 68.5
[13] | – | – | – | – | 91.3 | 98.1 | > 100 | 92.7 | 83.7
[14] | – | – | – | – | 92.7 | 79.1 | 98.7 | 94.9 | 2.04
[15] | – | – | – | – | 98.1 | 99.9 | 82.6 | 90.8 | 44.9
[16] | – | – | – | – | 90.9 | 83.7 | 74.7 | 76.2 | 36.6
[17] | – | – | – | – | 80.9 | 66.3 | 81.6 | 71.5 | 2.42

cell viability [%], HL-60 [2]
Settings | 0.001 µM | 0.01 µM | 0.1 µM | 1 µM | 10 µM
co-treatment: AZD3965 100 nM | 102 | 95.1 | 101 | 101.5 | 97.6
co-treatment: DMSO vehicle | 99.6 | 98.8 | 107 | 111 | 101
co-treatment: GSK2194069 100 nM | 98.1 | 76.9 | 116 | 115 | 96.7
co-treatment: pictilisib 100 nM | 84.3 | 82.1 | 103 | 128 | 106

Cc1[nH]nc(C(F)(F)F)c1Cc1sc2c(c1C(=O)N1C[C@](C)(O)CO1)c(=O)n(C)c(=O)n2C(C)C [AZD3965]
Settings | area under dose-response curve, co-treatment: AZD3965 100 nM | area under dose-response curve, co-treatment: DMSO vehicle | area under dose-response curve, co-treatment: GSK2194069 100 nM | area under dose-response curve, co-treatment: pictilisib 100 nM | cell viability, 1 nM [%] | cell viability, 10 nM [%] | cell viability, 100 nM [%] | cell viability, 1000 nM [%] | cell viability, 10000 nM [%]
HL-60 [1] | < 0.0301 | < 0.0301 | < 0.0301 | < 0.0301 | – | – | – | – | –
[3] | – | – | – | – | 86.2 | 76.4 | > 100 | 92.3 | 94.2
[4] | – | – | – | – | 84.2 | 39.1 | > 100 | 89.9 | 98.9
[5] | – | – | – | – | 87.3 | 98.5 | 98.1 | > 100 | > 100
[6] | – | – | – | – | 86.7 | 74.6 | 89.9 | 92.5 | 87.8
[7] | – | – | – | – | 85.6 | 69.2 | 93.7 | 97.4 | 81.1
[8] | – | – | – | – | 90.7 | 83.2 | 97.7 | 94.9 | 96.1
[9] | – | – | – | – | 93.3 | 94 | > 100 | 99.9 | 98.2
[10] | – | – | – | – | 93.7 | 91.6 | > 100 | > 100 | 88.6
[11] | – | – | – | – | 82.2 | 5.69 | 65 | 55.7 | 44.5
[12] | – | – | – | – | 93.1 | 89.5 | 97.5 | 95.2 | 93
[13] | – | – | – | – | 97 | 87.2 | 99 | 96.3 | 98
[14] | – | – | – | – | 84 | 98.8 | 92.7 | 96.7 | 93.6
[15] | – | – | – | – | 64 | 45.1 | 93.6 | 99.9 | 98.5
[16] | – | – | – | – | 98.2 | 33.4 | 85 | 46.5 | 48.7
[17] | – | – | – | – | > 100 | 34.8 | > 100 | 74.3 | 86.9

cell viability [%], HL-60 [2]
Settings | 0.001 µM | 0.01 µM | 0.1 µM | 1 µM | 10 µM
co-treatment: AZD3965 100 nM | 92.7 | 98.1 | 96 | 92.2 | 102
co-treatment: DMSO vehicle | 102 | 95.8 | 97.9 | 94.6 | 99.6
co-treatment: GSK2194069 100 nM | 98 | 95.7 | 108 | 97.5 | 105
co-treatment: pictilisib 100 nM | 89.3 | 97.7 | 109 | 97.9 | 112
